Assay [1] has as its target T1, PD-L1 protein on the surface of MC38-hPDL1 tumor cells (Homo sapiens, UniProt Q9NZQ7).
T1 construct: expressed in transfected cells; host or cells: MC38-hPDL1 (mouse colon cancer cells)
Put plainly: Induction of endocytosis of PD-L1 on the surface of tumor cells (flow cytometry). The format is cell-based. Particulars: 16 hours incubation; for Emax: MC38-hPDL1 cells, read-out: MC38 maximum endocytosis rate; for IC50: inducing endocytosis of PD-L1, MC38-hPDL1 cells, read-out: MC38 IC50. The source says:
Test Embodiment 2. Test of the Activity of Compounds of the Present Disclosure on Inducing the Endocytosis of PD-L1 Protein on the Surface of Tumor Cells
Experimental purpose: The purpose of this test embodiment was to test the activity of the compound on inducing the endocytosis of PD-L1 on the surface of tumor cells.
Experimental method: In order to test the activity of the compound on inducing the endocytosis of PD-L1, in this experiment, the activity of the compound on inducing the endocytosis of PD-L1 was tested by detecting the change degree of PD-L1 on the tumor cell surface with fluorescently labeled anti-PD-L1 antibody, and the IC50 of activity of the compound on inducing the endocytosis of PD-L1 was obtained.
The mouse colon cancer cells MC38-hPDL1 with high expression of hPD-L1 were collected, and adjusted to a suitable density and plated in a 24-well plate, and placed in a 37° C., 5% CO2 incubator to adhere overnight. Compounds were prepared into different concentrations by medium and added to a 24-well plate, and a vehicle control well was set up. After the cells were incubated in a 37° C., 5% CO2 incubator for 16 hours, the 24-well plate was taken out, and MC38-hPDL1 cells with different treatments in the plate were collected. After the cells were washed once with FACS buffer (PBS containing 0.5% BSA), and the cells were prepared to an appropriate density with FACS buffer. PE Mouse Anti-Human CD274 antibody (BD Pharmingen #557924) was added, and the cells were shaken at room temperature and incubated for 30 minutes without light, then the cells were washed twice with FACS buffer, resuspended in 100 μL of PBS, and a flow cytometer was used to detect the fluorescent signal on the cell surface, and the isotype control was set as a negative control.
The endocytosis rate of the compounds was calculated from the fluorescence signals of different treatment groups, and the compound concentration and endocytosis rate were fitted by nonlinear regression using GraphPad Prism software, and IC50 values were obtained, as shown in Table 2.

In the next assay the target is T2, human PD-L1 protein (Homo sapiens, UniProt Q9NZQ7).
T2 construct: purchased Acro Biosystems PD1-H5229
Description: Thermal shift: melting temperature of PD-L1 protein. Format: binding. Particulars: compound 10 μM, PD-L1 protein 2 μM, Tm minus DMSO vehicle control; read-out: ΔTm (° C.). As for the experimental part: Test Embodiment 4. Test of Combination of the Compounds of the Present Disclosure to Improve the Stability (Melting Temperature) of PD-L1 Protein Experimental purpose: To test the ability of compounds to enhance the stability of PD-L1 protein and increase the melting temperature of the protein. Experimental method: […] A solution containing […] HEPES, SYPRO Orange, and 150 mM NaCl was prepared as experimental buffer, and human PD-L1 protein was added at a final concentration of 2 μM. […] PCR tube was put into the PCR machine, and the melt curve function was selected to detect the melting temperature of PD-L1 protein in different treatment groups (heated from 25° C. to 95° C., 0.03° C./s). The experimental data file of the PCR instrument was imported into the thermal shift software to obtain the melting temperature (Tm) of each treatment group, and the Tm of the DMSO vehicle control group was subtracted to obtain the change value (ΔTm) of the melting temperature, as shown in the following table: […]

The next assay concerns the target T3, human PD-1/PD-L1 binding (Homo sapiens, UniProt Q9NZQ7).
T3 construct: PD-L1-His protein (19 to 238 amino acids) (Abcam #ab167713); purchased Abcam (PD-L1-His); R&D (PD-1-Fc) ab167713; 1086-PD
Description: Inhibition of human PD-1/PD-L1 binding (TR-FRET/HTRF). Particulars: TR-FRET, PD-L1-His and PD-1-Fc; read-out: PD-1/PD-L1 binding IC50. A digest of the protocol: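 PD-L1-His (aa 19–238, diluted to 10 nM) and PD-1-Fc (aa 25–167, diluted to 20 nM) incubated with compounds (10 μM or 1 μM top, 3-fold, 11 doses) 60 min at room temperature, then anti-6HIS Eu cryptate/anti-human IgG-XL665 added for 3 h RT or overnight 4 °C. HTRF 665/620 nm ratio gave inhibition and IC50.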
For orientation: In TR-FRET formats the signal depends on donor and acceptor labels being close together.

T1 sequence (Q9NZQ7 19-290): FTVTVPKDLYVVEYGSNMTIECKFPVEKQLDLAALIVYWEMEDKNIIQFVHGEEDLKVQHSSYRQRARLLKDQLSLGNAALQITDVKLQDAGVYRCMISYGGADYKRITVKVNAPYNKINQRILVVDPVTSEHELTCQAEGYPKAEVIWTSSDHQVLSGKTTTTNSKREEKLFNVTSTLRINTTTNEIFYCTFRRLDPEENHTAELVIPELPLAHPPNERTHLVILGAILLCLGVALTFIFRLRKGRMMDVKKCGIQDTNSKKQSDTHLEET
T3 sequence (Q9NZQ7 19-238): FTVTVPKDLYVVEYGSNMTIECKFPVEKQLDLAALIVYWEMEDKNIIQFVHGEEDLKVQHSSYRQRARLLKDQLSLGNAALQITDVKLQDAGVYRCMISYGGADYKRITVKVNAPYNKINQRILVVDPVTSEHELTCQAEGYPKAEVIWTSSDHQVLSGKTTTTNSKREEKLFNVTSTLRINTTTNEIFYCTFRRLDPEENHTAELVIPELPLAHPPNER
T2 sequence (Q9NZQ7 19-238 limits assumed): as the sequence (Q9NZQ7 19-238) above

Usually ΔTm stands for the shift of the melting midpoint relative to a reference. Take `COc1nc(-c2cccc(-c3cccc(NC(=O)c4nc5c(n4C)CCN(C)C5)c3Cl)c2Cl)ccc1CN1CC(CC#N)C1` [Embodiment 182, N-(2,2′-Dichloro-3′-(5-((3-(cyanomethyl)azetidin-1-yl)methyl)-6-methoxypyridin-2-yl)-[1,1′-biphenyl]-3-yl)-1,5-dimethyl-4,5,6,7-tetrahydro-1H-imidazo[4,5-c]pyridine-2-carboxamide]: the Emax in assay [1] was determined as 97%. For the same compound, the ΔTm at 10 µM on human PD-L1 protein is 16.3 °C.
Regarding `COC(=O)[C@H](CO)NCc1cnc(-c2cccc(-c3cccc(NC(=O)c4nc5c(n4C)CCN(C)C5)c3Cl)c2Cl)nc1OC` [Embodiment 227, Methyl ((2-(2,2′-dichloro-3′-(1,5-dimethyl-4,5,6,7-tetrahydro-1H-imidazo[4,5-c]pyridine-2-carboxamido)-[1,1′-biphenyl]-3-yl)-4-methoxypyrimidin-5-yl)methyl)-L-serinate], the ΔTm at 10 µM on human PD-L1 protein amounted to 11.9 °C.
`COc1cc(NCc2cnc(C(=O)Nc3cccc(-c4cccc(NC(=O)c5nc6c(n5C)CCN(C)C6)c4Cl)c3Cl)cc2OC)ccn1` [Embodiment 2, N-(2,2′-Dichloro-3′-(4-methoxy-5-(((2-methoxypyridin-4-yl)amino)methyl)picolinamido)-[1,1′-biphenyl]-3-yl)-1,5-dimethyl-4,5,6,7-tetrahydro-1H-imidazo[4,5-c]pyridine-2-carboxamide]: the IC50 at human PD-1/PD-L1 binding is 5 nM; in assay [1] it was 4.6 nM. The Emax in assay [1] came to 89%.
On the same counts, the results for `COc1cc(C(=O)Nc2cccc(-c3cccc(NC(=O)c4nc5c(n4C)CCN(C)C5)c3Cl)c2C)ncc1CN[C@H]1CCCNC1=O` [Embodiment 98, (S)—N-(2-Chloro-3′-(4-methoxy-5-(((2-carbonylpiperidin-3-yl)amino)methyl)picolinamido)-2′-methyl-[1,1′-biphenyl]-3-yl)-1,5-dimethyl-4,5,6,7-tetrahydro-1H-imidazo[4,5-c]pyridine-2-carboxamide] are 6.3 nM, 5.6 nM and 93%.
In the same order, the values of `COc1cc(C(=O)Nc2cccc(-c3cccc(NC(=O)c4nc5c(n4C)CCN(C)C5)c3Cl)c2C)ncc1CNC[C@@H]1CCC(=O)N1` [Embodiment 39, (S)—N-(2-Chloro-3′-(4-methoxy-5-((((5-carbonylpyrrolidin-2-yl)methyl)amino)methyl)picolinamido)-2′-methyl-[1,1′-biphenyl]-3-yl)-1,5-dimethyl-4,5,6,7-tetrahydro-1H-imidazo[4,5-c]pyridine-2-carboxamide] are 5 nM, 1.9 nM and 97%.
On the same counts, the results for `COc1cc(C(=O)Nc2cccc(-c3cccc(NC(=O)c4nc5c(n4C)CCN(C)C5)c3Cl)c2C)ncc1CNC1CCOCC1` [Embodiment 35, N-(2-Chloro-3′-(4-methoxy-5-(((tetrahydro-2H-pyran-4-yl)amino)methyl)picolinamido)-2′-methyl-[1,1′-biphenyl]-3-yl)-1,5-dimethyl-4,5,6,7-tetrahydro-1H-imidazo[4,5-c]pyridine-2-carboxamide] are 3.6 nM, 1.3 nM and 96%.
For `CCN1CCc2c(nc(C(=O)Nc3cccc(-c4cccc(NC(=O)c5cc(OC)c(CNc6ccnc(OC)c6)cn5)c4Cl)c3Cl)n2C)C1` [Embodiment 82, N-(2,2′-Dichloro-3′-(4-methoxy-5-(((2-methoxypyridin-4-yl)amino)methyl)picolinamido)-[1,1′-biphenyl]-3-yl)-5-ethyl-1-methyl-4,5,6,7-tetrahydro-1H-imidazo[4,5-c]pyridine-2-carboxamide], the IC50 at human PD-1/PD-L1 binding was found to be 3.9 nM. In assay [1], the Emax came to 85% and the IC50 was 12 nM.
For the compound `C=CCNCc1cnc(C(=O)Nc2cccc(-c3cccc(NC(=O)c4nc5c(n4C)CCN(C)C5)c3Cl)c2C)cc1OC` [Embodiment 41, N-(3′-(5-((Allylamino)methyl)-4-methoxypicolinamido)-2-chloro-2′-methyl-[1,1′-biphenyl]-3-yl)-1,5-dimethyl-4,5,6,7-tetrahydro-1H-imidazo[4,5-c]pyridine-2-carboxamide], the IC50 on human PD-1/PD-L1 binding came out at 4 nM. In addition, in assay [1], the Emax is 90% and the IC50 amounted to 1.9 nM.
Regarding `COc1cc(NCc2cnc(C(=O)Nc3cccc(-c4cccc(NC(=O)c5nc6c(n5C)CCNC6)c4Cl)c3Cl)cc2OC)ccn1` [Embodiment 81, N-(2,2′-Dichloro-3′-(4-methoxy-5-(((2-methoxypyridin-4-yl)amino)methyl)picolinamido)-[1,1′-biphenyl]-3-yl)-1-methyl-4,5,6,7-tetrahydro-1H-imidazo[4,5-c]pyridine-2-carboxamide], the IC50 at human PD-1/PD-L1 binding turned out to be 2.4 nM. For the same compound, in assay [1], the Emax was 86% and the IC50 is 5 nM.
In the same order, the values of `COc1cc(C(=O)Nc2cccc(-c3cccc(NC(=O)c4nc5c(n4C)CCN(C)C5)c3Cl)c2C)ncc1CN1CC(F)(CO)COC1=O` (stereo not drawn) [Embodiment 22, N-(2-Chloro-3′-(5-((5-fluoro-5-(hydroxymethyl)-2-carbonyl-1,3-oxazinan-3-yl)methyl)-4-methoxypicolinamido)-2′-methyl-[1,1′-biphenyl]-3-yl)-1,5-dimethyl-4,5,6,7-tetrahydro-1H-imidazo[4,5-c]pyridine-2-carboxamide] are 5.9 nM, 92% and 14.5 nM.
In the same order, the values of `Cc1c(NC(=O)c2cc(C3CC3)c(CO)cn2)cccc1-c1cccc(NC(=O)c2nc3c(n2C)CCN(C)C3)c1Cl` [Embodiment 51, N-(2-Chloro-3′-(4-cyclopropyl-5-(hydroxymethyl)picolinamido)-2′-methyl-[1,1′-biphenyl]-3-yl)-1,5-dimethyl-4,5,6,7-tetrahydro-1H-imidazo[4,5-c]pyridine-2-carboxamide] are 5.5 nM, 91% and 11.8 nM.
For the compound `COc1cc(C(=O)Nc2cccc(-c3cccc(NC(=O)c4nc5c(n4C)CCN(C)C5)c3Cl)c2C)ncc1CNc1cc(C)ccn1` [Embodiment 11, N-(2-Chloro-3′-(4-methoxy-5-(((4-methylpyridin-2-yl)amino)methyl)picolinamido)-2′-methyl-[1,1′-biphenyl]-3-yl)-1,5-dimethyl-4,5,6,7-tetrahydro-1H-imidazo[4,5-c]pyridine-2-carboxamide], on human PD-1/PD-L1 binding, the IC50 was 5.1 nM. In addition, in assay [1], the Emax stood at 85% and the IC50 was 8.1 nM.
`COc1cc(-c2cccc(-c3cccc(NC(=O)c4nc5c(n4C)CCN(C)C5)c3Cl)c2Cl)ncc1CNC[C@@H]1CCC(=O)N1` [Embodiment 56, (S)—N-(2,2′-Dichloro-3′-(4-methoxy-5-((((5-carbonylpyrrolidin-2-yl)methyl)amino)methyl)pyridin-2-yl)-[1,1′-biphenyl]-3-yl)-1,5-dimethyl-4,5,6,7-tetrahydro-1H-imidazo[4,5-c]pyridine-2-carboxamide]: the IC50 at human PD-1/PD-L1 binding was 2.1 nM. Also, in assay [1], the Emax is 91% and the IC50 came out at 12.2 nM.
